Data on ten compounds can be found in patent US8816079B2, “Amide derivative and use thereof as medicine” (Mitsubishi Tanabe Pharma Corporation, priority 2010, dated 2014).

The subject of experiment [1] is rat adjuvant induced arthritis model. Description: hindpaw edema of rat adjuvant induced arthritis model. In kind it is in vivo. To be noted: LEW rat, 10 mg/kg oral once a day day 15 to day 20, difference of hindpaw volume day 15 to day 21; disease group (solvent) 0.63 ± 0.13. Here is the method:
Anesthetized rats (LEW, male, 6-week-old) were immunized with M. Butyricum (5 mg/mL) at a dose of 0.1 mL/body by subcutaneous administration from the tail root. […] […] The amount of hindpaw edema was the difference in the amount between hindpaw volume on day 15 and that on day 21.

The test system of experiment [2] is rat dinitrobenzene-induced colitis model. Briefly: large intestine weight increase of rat dinitrobenzene-induced colitis model. To be noted: Wistar rat, 10 mg/kg oral once a day, day 8; normal group 0.215 ± 0.011, pathology group 0.633 ± 0.041. In kind it is in vivo. Here is the method:
A dinitrobenzene solution (30 mg/0.1 mL) was injected into the large intestine of anesthetized rats (Wistar, male, 6-week-old). […] On day 8, the large intestine was isolated from euthanized rats, and the wet weight thereof was measured. The large intestine weight was amended to the weight per 100 g body weight of the rats on day 8.

The test system of experiment [3] is proMMP-2 production by THP-1 cell. Description: hemostatic type proMMP-2 production by THP-1 cell. It is filed as cell-based, human. To be noted: THP-1 cells without stimulation, 24 hr, test compound 2 μM. Here is the method: THP-1 cell (human monocytic leukemia cell line) was adjusted to 1×10^7 cells/mL in a culture medium (10% fetal bovine serum/RPMI1640 medium), and dispensed to a 96 well multiplate. This was equilibrated under the conditions of 37° C./5% CO2, and a culture medium containing a test compound was added thereto. After incubation under the conditions of 37° C./5% CO2 for 24 hr, the culture medium was centrifuged and the culture supernatant was collected, which was subjected to the following measurement.
Quantification of proMMP-2 in Culture Supernatant
The proMMP-2 concentration of the collected culture supernatant was quantified using a commercially available measurement reagent (manufactured by GE Healthcare, MMP-2, Human, Biotrak ELISA System).
Calculation of proMMP-2 Suppression Rate
The proMMP-2 suppression rate of the test compound was calculated from the following formula: % suppress=100−((Test/Cont)×100). wherein Cont is proMMP-2 concentration of culture supernatant without addition of a test compound (added with solvent alone) and Test is proMMP-2 concentration of culture supernatant with addition of a test compound.

The subject of experiment [4] is proMMP-9 production by human TNFα stimulated THP-1 cell. Description: proMMP-9 production by human TNFα stimulated THP-1 cell. It is filed as cell-based. Conditions: THP-1 cells, human TNFα 10 ng/mL, 24 hr; IC50 from 3 points at 10, 100 and 1,000 nmol/L; read-out: proMMP-9 production suppression (IC50). Here is the method: THP-1 cell (human monocytic leukemia cell line) was adjusted to 1×10^7 cells/mL in a culture medium (10% fetal bovine serum/RPMI1640 medium), and dispensed to a 96 well multiplate. This was equilibrated under the conditions of 37° C./5% CO2, and a culture medium containing human TNFα (final concentration 10 ng/mL) and a test compound was added thereto. After incubation under the conditions of 37° C./5% CO2 for 24 hr, the culture medium was centrifuged and the culture supernatant was collected, which was subjected to the following measurement.
Quantification of proMMP-9 in Culture Supernatant
The proMMP-9 concentration of the collected culture supernatant was quantified using a commercially available measurement reagent (manufactured by GE Healthcare, MMP-9, Human, Biotrak ELISA System).
Calculation of proMMP-9 Suppression Rate
The proMMP-9 suppression rate of the test compound was calculated from the following formula: % suppression=100−((Test−Min)/(Max−Min)×100) wherein Max is proMMP-9 concentration of culture supernatant induced by stimulation with human TNFα, without addition of a test compound (added with solvent alone) Min is proMMP-9 concentration of culture supernatant without addition of a test compound (added with solvent alone) and without stimulation with human TNFα, and Test is proMMP-9 concentration of culture supernatant induced by stimulation with human TNFα when a test compound is added.
Furthermore, the concentration of the test compound necessary for suppressing proMMP-9 production by human TNFα stimulated THP-1 cell by 50% ([…]) was calculated from 3 points of proMMP-9 suppression rate at test compound concentrations of 10, 100 and 1,000 nmol/L.

Experiment [5] concerns rat monoiodoacetic acid-induced osteoarthritis model. Briefly: articular joints injury of rat monoiodoacetic acid-induced osteoarthritis model. It is filed as in vivo. To be noted: LEW rat, 10 mg/kg oral once a day to day 6, scored on day 7; disease group (solvent) 5.8 ± 0.2. Here is the method: Monoiodoacetic acid solution (0.3 mg/25 μL) was injected into the right hindpaw knee joint cavity of anesthetized rats (LEW, male, 7-week-old). A test compound was orally administered once a day from immediately after monoiodoacetic acid injection to day 6 at a dose of 10 mg/kg. On day 7, right hindpaw knee joint was taken from euthanized rats, and fixed with 10% neutral formalin solution. A pathology specimen of knee joint was prepared, stained with Hematoxylin Eosin and Safranine O, and the state of joint cartilage injury was scored under microscopic observation. For articular joint injury scores, changes in each pathological finding in medial condyle of femur and medial condyle of tibia (cartilage surface tuberosity, erosion/ulcer/fibrillation, chondrocyte disorganization/disappearance/hypertrophy, reduction of Safranine staining) were divided into mild, moderate and severe according to the method of Kobayashi et al. (Kobayashi K et al. J. Vet. Med. Sci. 65, 1195 1199 2003), and indicated in the scores of 1, 2 and 3 and totaled. Furthermore, an average of the score of medial condyle of femur and that of medial condyle of tibia was determined and used as an articular joint injury score.

As for `Cc1ccc(N2CCN(C(=O)c3ccc(N4CCCS4(=O)=O)cc3S(C)(=O)=O)CC2)c(C)c1` [Example 11, [4-(2,4-dimethylphenyl)piperazin-1-yl][4-(1,1-dioxo-1λ^6-isothiazolidin-2-yl)-2-methanesulfonylphenyl]methanone], the “hindpaw edema volume of compound administration group” value in experiment [1] is 0.24 ± 0.10. The “large intestine weight (g/100 g body weight)” value in experiment [2] was 0.509 ± 0.051 g/100 g body weight.
Broadly, the IC50 is the concentration that inhibits the measured activity by half. For `Cc1cnc(N2CCN(C(=O)c3ccc(N4CCCS4(=O)=O)cc3F)CC2)c(C)c1` [Example 130, [4-(3,5-dimethylpyridin-2-yl)piperazin-1-yl][4-(1,1-dioxo-1λ^6-isothiazolidin-2-yl)-2-fluorophenyl]methanone], the “MMP-2 production suppression (% suppression, 2 μM)” value in experiment [3] turned out to be 8.0%. In addition, in experiment [4], the 50% inhibitory concentration (IC50) is 44 nM.
As for `Cc1cnc(N2CCN(C(=O)c3ccc(N4CCCS4(=O)=O)cc3C)CC2)c(C)c1` [Example 154, [4-(3,5-Dimethylpyridin-2-yl)piperazin-1-yl][4-(1,1-dioxo-1λ^6-isothiazolidin-2-yl)-2-methylphenyl]methanone], in experiment [3], the “MMP-2 production suppression (% suppression, 2 μM)” value is on record as 13.0%. For the same compound, the “articular joint injury score of compound administration group” value in experiment [5] amounted to 4.6 ± 0.4. Besides, the IC50 in experiment [4] stood at 82 nM.
As to `Cc1cc(C2CC2)cnc1N1CCN(C(=O)c2ccc(CN3CCCS3(=O)=O)cc2)CC1` [Example 245, [4-(5-cyclopropyl-3-methylpyridin-2-yl)piperazin-1-yl][4-(1,1-dioxo-1λ^6-isothiazolidin-2-ylmethyl)phenyl]methanone], the IC50 in experiment [4] amounted to 73 nM.
Consider `Cc1cnc(N2CCN(C(=O)c3ccc(N4CCCC4=O)cc3F)CC2)c(C)c1` [Example 282, 1-{4-[4-(3,5-dimethylpyridin-2-yl)piperazine-1-carbonyl]-3-fluorophenyl}pyrrolidin-2-one], for which, in experiment [4], the IC50 was 76 nM.
Same read-out and setting: the result for `Cc1cnc(N2CCN(C(=O)c3ccc(N4CCNC4=O)cc3F)CC2)c(C)c1` [Example 416, 1-{4-[4-(3,5-dimethylpyridin-2-yl)piperazine-1-carbonyl]-3-fluorophenyl}imidazolidin-2-one] reads 10 nM.
Still for that read-out and setting: the result for `CC(=O)Nc1ccc(C(=O)N2CCN(c3ccc(C)cc3C)CC2)c(S(C)(=O)=O)c1` [Example 474, N-{4-[4-(2,4-dimethylphenyl)piperazine-1-carbonyl]-3-methanesulfonylphenyl}acetamide] reads 36 nM; that for `Cc1cnc(N2CCN(C(=O)c3ccc(N(C)S(C)(=O)=O)cc3F)CC2)c(C)c1` [Example 494, N-{4-[4-(3,5-dimethylpyridin-2-yl)piperazine-1-carbonyl]-3-fluorophenyl}-N-methylmethanesulfonamide], 102 nM; that for `Cc1cc(C)c(N2CCN(C(=O)c3ccc(N4C(=O)NC(=O)C4C)nc3)CC2)nc1C` (centres unmarked) [Example 549, 5-methyl-1-{5-[4-(3,5,6-trimethylpyridin-2-yl)piperazine-1-carbonyl]pyridin-2-yl}imidazolidine-2,4-dione], 7 nM.
Consider `Cc1cc(C2CC2)cnc1N1CCN(C(=O)c2cnc(N3C(=O)CCC3C)cn2)CC1` (centres unmarked) [Example 687, 1-{5-[4-(5-cyclopropyl-3-methylpyridin-2-yl)piperazine-1-carbonyl]pyrazin-2-yl}-5-methylpyrrolidin-2-one], for which the IC50 in experiment [4] stood at 41 nM.
